What was measured:
[1] = molecular target: D(2) dopamine receptor (Homo sapiens) (UniProt P14416); test: Binding affinity to dopamine D2 receptor (unknown origin) at 10 uM
[2] = molecular target: 5-hydroxytryptamine receptor 1D (Homo sapiens) (UniProt P28221); test: Displacement of [3H]GR125743 from 5HT1D receptor (unknown origin) at 10 uM
[3] = molecular target: Glutamate NMDA receptor; GRIN1/GRIN2A (Homo sapiens) (UniProt Q05586+Q12879); test: Binding affinity to NMDA receptor (unknown origin) at 10 uM; assay type: protein-complex assay
[4] = species on record: Rattus norvegicus; test: Binding affinity to benzodiazepine receptor in rat brain; assay type: tissue-based; conditions: concentration not given here
[5] = molecular target: T1, 5-hydroxytryptamine receptor 2B (Homo sapiens, UniProt P41595); test: Displacement of [3H]LSD from 5HT2B receptor (unknown origin) at 10 uM
T1 sequence (P41595 whole entry): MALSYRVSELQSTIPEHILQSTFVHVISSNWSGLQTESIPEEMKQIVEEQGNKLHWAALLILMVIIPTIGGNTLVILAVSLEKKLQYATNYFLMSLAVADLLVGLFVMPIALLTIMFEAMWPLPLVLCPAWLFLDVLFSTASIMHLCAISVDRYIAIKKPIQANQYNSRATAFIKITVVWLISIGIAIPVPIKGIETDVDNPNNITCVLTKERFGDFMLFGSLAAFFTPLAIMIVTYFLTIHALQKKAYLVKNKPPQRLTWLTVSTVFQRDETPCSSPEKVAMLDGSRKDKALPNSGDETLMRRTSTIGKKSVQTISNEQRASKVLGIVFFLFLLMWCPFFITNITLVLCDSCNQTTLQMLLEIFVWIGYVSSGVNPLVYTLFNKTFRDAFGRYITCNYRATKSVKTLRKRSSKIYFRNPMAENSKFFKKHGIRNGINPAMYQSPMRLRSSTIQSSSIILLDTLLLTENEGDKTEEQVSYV

[6] = molecular target: 5-hydroxytryptamine receptor 1E (Homo sapiens) (UniProt P28566); test: Displacement of [3H]5HT from 5HT1E receptor (unknown origin) at 10 uM
[7] = molecular target: 5-hydroxytryptamine receptor 1B (Homo sapiens, UniProt P28222); test: Displacement of [3H]GR125743 from 5HT1B receptor (unknown origin) at 10 uM
[8] = molecular target: Delta-type opioid receptor (Homo sapiens) (UniProt P41143); test: Binding affinity to DOR (unknown origin) at 10 uM
[9] = molecular target: Kappa-type opioid receptor (Homo sapiens) (UniProt P41145); test: Binding affinity to KOR (unknown origin) at 10 uM
[10] = molecular target: 5-hydroxytryptamine receptor 6 (Homo sapiens, UniProt P50406); test: Binding affinity to 5HT6 receptor (unknown origin)
Chain of 5-hydroxytryptamine receptor 6 (P50406 whole entry): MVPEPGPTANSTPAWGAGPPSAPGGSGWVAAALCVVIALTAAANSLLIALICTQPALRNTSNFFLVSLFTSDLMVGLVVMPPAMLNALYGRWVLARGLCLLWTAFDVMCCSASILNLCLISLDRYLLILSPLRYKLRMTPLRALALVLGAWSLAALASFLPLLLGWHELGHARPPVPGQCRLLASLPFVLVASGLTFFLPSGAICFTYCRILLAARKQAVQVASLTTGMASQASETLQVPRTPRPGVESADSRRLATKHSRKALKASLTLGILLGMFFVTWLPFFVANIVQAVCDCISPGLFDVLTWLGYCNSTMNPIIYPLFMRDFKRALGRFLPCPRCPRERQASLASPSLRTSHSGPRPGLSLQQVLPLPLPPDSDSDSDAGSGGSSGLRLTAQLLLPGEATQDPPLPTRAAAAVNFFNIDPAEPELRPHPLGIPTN

[11] = molecular target: Translocator protein (Homo sapiens, UniProt P30536); test: Binding affinity to PBR (unknown origin)
[12] = molecular target: Cannabinoid receptor 2 (Homo sapiens) (UniProt P34972); test: Binding affinity to CB2 receptor (unknown origin) at 10 uM
[13] = tested on: Sigma 2 receptor; test: Binding affinity to sigma-2 receptor (unknown origin) at 10 uM; conditions: Homo sapiens
[14] = molecular target: Sodium-dependent dopamine transporter (Homo sapiens) (UniProt Q01959); test: Binding affinity to DAT (unknown origin) at 10 uM
Chain of Sodium-dependent dopamine transporter (Homo sapiens) (Q01959 whole entry): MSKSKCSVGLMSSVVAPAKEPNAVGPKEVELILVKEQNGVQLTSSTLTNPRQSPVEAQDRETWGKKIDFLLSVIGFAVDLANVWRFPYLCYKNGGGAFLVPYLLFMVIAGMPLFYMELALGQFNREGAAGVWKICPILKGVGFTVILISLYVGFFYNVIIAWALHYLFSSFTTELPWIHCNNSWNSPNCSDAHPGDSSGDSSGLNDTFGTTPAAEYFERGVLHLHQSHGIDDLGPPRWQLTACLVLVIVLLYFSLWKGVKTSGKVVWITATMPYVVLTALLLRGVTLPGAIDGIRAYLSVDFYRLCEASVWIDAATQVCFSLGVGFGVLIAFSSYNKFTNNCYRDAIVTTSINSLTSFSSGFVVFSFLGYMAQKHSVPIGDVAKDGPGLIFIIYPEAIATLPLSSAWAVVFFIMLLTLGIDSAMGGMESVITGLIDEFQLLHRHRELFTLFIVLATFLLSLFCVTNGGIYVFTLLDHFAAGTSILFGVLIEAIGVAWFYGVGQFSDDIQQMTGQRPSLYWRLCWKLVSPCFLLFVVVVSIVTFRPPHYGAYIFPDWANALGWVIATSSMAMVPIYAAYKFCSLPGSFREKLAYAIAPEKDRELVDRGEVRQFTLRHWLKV

[15] = molecular target: T1, 5-hydroxytryptamine receptor 2B; test: Displacement of [3H]LSD from 5HT2B receptor (unknown origin)
[16] = molecular target: Beta-3 adrenergic receptor (Homo sapiens) (UniProt P13945); test: Binding affinity to beta3 adrenoceptor (unknown origin) at 10 uM
[17] = molecular target: Alpha-2A adrenergic receptor (Homo sapiens, UniProt P08913); test: Binding affinity to alpha2A adrenoceptor (unknown origin)
[18] = molecular target: Alpha-2B adrenergic receptor (Homo sapiens, UniProt P18089); test: Binding affinity to alpha2B adrenoceptor (unknown origin)
Chain of Alpha-2B adrenergic receptor (P18089 whole entry): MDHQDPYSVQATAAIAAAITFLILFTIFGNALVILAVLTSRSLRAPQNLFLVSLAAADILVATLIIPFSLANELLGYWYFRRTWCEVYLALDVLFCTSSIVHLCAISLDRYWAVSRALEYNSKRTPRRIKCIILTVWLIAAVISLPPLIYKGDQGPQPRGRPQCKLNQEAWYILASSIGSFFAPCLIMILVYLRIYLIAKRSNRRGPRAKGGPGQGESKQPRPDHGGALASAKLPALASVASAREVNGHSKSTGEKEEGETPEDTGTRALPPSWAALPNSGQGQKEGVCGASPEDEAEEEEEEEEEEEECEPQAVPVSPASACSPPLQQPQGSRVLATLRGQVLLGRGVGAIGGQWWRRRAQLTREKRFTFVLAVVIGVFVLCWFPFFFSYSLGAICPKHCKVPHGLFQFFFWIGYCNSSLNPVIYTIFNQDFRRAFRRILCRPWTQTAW

[19] = molecular target: Beta-1 adrenergic receptor (Homo sapiens) (UniProt P08588); test: Binding affinity to beta1 adrenoceptor (unknown origin) at 10 uM
[20] = molecular target: T2, 5-hydroxytryptamine receptor 1A (Homo sapiens) (UniProt P08908); test: Displacement of [3H]-8-OH-DPAT from 5HT1A receptor (unknown origin) at 10 uM
T2 sequence (whole entry): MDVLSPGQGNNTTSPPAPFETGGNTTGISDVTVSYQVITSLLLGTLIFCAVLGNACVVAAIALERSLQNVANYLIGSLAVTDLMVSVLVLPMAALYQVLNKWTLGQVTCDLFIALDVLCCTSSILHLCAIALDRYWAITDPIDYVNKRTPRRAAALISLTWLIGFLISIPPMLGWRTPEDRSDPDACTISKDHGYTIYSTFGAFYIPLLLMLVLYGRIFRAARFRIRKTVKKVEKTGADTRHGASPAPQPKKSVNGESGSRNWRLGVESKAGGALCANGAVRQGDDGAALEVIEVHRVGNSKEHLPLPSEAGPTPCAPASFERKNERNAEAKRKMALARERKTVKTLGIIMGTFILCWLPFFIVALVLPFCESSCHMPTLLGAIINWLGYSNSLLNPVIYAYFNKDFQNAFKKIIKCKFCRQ

[21] = molecular target: D(3) dopamine receptor (Homo sapiens) (UniProt P35462); test: Binding affinity to dopamine D3 receptor (unknown origin) at 10 uM
[22] = molecular target: Muscarinic acetylcholine receptor M3 (Homo sapiens) (UniProt P20309); test: Binding affinity to muscarinic M3 receptor (unknown origin) at 10 uM
Chain of Muscarinic acetylcholine receptor M3 (Homo sapiens) (P20309 whole entry, looked up): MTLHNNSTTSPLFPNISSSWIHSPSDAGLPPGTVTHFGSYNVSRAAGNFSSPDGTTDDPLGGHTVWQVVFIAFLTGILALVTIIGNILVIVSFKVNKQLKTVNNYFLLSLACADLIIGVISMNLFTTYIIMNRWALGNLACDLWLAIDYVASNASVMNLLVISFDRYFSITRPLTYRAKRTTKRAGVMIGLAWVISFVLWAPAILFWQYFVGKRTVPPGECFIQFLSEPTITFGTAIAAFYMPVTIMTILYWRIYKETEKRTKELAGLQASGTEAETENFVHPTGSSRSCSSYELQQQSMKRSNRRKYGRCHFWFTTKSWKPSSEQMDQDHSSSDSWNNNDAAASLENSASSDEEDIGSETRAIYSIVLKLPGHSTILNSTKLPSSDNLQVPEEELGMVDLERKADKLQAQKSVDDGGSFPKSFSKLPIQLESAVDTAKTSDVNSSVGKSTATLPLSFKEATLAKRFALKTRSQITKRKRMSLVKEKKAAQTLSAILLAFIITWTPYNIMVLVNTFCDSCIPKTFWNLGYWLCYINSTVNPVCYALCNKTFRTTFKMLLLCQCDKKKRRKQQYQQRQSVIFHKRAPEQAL

[23] = molecular target: T3, 5-hydroxytryptamine receptor 3A (Homo sapiens) (UniProt P46098); test: Displacement of [3H]LY278584 from 5HT3 receptor (unknown origin) at 10 uM
T3 sequence (whole entry): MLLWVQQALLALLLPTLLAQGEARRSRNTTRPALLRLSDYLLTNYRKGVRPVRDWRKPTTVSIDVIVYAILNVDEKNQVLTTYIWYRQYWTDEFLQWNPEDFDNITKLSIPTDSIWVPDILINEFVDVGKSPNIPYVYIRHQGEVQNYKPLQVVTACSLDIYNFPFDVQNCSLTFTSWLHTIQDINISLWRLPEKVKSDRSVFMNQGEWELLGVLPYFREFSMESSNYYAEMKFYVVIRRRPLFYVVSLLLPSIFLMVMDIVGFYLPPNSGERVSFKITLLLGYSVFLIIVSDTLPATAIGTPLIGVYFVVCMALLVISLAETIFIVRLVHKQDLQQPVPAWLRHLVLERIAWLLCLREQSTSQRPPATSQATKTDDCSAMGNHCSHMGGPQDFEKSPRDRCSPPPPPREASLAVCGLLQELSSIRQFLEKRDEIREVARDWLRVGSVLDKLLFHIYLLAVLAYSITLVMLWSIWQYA

[24] = molecular target: Muscarinic acetylcholine receptor M4 (Homo sapiens) (UniProt P08173); test: Binding affinity to muscarinic M4 receptor (unknown origin) at 10 uM
Chain of Muscarinic acetylcholine receptor M4 (Homo sapiens) (P08173 whole entry): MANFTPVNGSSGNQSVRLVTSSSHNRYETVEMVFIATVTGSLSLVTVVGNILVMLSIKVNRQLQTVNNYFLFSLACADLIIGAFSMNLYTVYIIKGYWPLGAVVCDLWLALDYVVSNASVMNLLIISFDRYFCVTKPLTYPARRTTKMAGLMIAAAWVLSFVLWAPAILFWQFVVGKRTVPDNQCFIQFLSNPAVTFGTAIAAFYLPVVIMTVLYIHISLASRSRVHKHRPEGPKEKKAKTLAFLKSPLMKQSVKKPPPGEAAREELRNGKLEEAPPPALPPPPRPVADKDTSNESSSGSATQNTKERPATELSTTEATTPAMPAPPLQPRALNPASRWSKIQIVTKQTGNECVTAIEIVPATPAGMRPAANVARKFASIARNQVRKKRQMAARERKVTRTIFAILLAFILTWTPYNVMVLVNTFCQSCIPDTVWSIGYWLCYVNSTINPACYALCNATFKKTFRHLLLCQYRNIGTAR

[25] = molecular target: Sodium-dependent noradrenaline transporter (Homo sapiens) (UniProt P23975); test: Binding affinity to NET (unknown origin) at 10 uM
Chain of Sodium-dependent noradrenaline transporter (Homo sapiens) (P23975 whole entry): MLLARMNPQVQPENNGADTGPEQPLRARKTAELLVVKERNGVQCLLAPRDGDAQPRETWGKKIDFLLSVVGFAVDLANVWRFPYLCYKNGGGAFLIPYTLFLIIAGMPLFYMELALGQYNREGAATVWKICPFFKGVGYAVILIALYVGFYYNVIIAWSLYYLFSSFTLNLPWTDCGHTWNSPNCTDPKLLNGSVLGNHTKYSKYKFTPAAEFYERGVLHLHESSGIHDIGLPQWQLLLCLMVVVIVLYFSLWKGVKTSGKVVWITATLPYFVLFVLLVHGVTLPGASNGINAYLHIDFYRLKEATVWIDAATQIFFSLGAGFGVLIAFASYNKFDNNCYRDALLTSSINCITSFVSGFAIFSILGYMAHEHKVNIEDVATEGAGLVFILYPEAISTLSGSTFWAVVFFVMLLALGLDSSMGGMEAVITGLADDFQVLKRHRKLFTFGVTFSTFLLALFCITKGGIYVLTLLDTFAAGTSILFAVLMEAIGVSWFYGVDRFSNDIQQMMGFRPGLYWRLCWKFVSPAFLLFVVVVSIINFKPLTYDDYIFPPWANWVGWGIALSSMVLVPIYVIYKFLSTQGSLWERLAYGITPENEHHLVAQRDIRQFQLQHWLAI

[26] = molecular target: Alpha-1B adrenergic receptor (Homo sapiens) (UniProt P35368); test: Binding affinity to alpha1B adrenoceptor (unknown origin) at 10 uM
[27] = molecular target: Alpha-1D adrenergic receptor (Homo sapiens) (UniProt P25100); test: Binding affinity to alpha1D adrenoceptor (unknown origin) at 10 uM
[28] = molecular target: Histamine H1 receptor (Homo sapiens) (UniProt P35367); test: Binding affinity to histamine H1 receptor (unknown origin) at 10 uM
Chain of Histamine H1 receptor (Homo sapiens) (P35367 whole entry): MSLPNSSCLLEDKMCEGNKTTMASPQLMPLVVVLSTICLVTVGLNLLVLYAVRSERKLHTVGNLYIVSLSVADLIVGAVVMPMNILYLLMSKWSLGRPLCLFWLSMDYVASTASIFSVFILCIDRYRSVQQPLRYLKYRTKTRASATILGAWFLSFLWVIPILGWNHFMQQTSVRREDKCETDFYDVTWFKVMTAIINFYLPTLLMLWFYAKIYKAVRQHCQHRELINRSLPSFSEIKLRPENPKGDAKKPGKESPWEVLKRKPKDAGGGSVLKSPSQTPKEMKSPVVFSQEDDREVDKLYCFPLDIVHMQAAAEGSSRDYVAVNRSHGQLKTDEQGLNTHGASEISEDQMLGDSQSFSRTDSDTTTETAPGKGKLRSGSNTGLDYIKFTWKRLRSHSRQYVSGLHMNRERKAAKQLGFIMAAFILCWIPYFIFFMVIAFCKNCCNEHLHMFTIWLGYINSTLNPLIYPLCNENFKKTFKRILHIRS

[29] = molecular target: Alpha-2C adrenergic receptor (Homo sapiens, UniProt P18825); test: Binding affinity to alpha2C adrenoceptor (unknown origin)
[30] = molecular target: D(1A) dopamine receptor (Homo sapiens) (UniProt P21728); test: Binding affinity to dopamine D1 receptor (unknown origin) at 10 uM
[31] = molecular target: Histamine H3 receptor (Homo sapiens) (UniProt Q9Y5N1); test: Binding affinity to histamine H3 receptor (unknown origin) at 10 uM
Chain of Histamine H3 receptor (Homo sapiens) (Q9Y5N1 whole entry): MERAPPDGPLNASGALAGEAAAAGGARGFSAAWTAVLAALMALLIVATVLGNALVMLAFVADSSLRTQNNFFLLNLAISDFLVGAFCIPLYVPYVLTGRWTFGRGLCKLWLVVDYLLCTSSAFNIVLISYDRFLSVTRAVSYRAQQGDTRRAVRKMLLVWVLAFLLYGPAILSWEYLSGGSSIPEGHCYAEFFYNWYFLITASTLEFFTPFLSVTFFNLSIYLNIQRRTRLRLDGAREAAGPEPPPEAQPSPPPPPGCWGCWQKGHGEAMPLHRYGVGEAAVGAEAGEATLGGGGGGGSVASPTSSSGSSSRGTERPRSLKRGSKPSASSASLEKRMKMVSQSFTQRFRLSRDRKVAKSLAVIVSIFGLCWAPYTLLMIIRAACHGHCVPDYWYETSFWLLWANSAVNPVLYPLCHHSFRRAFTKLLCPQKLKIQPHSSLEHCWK

[32] = molecular target: Histamine H4 receptor (Homo sapiens) (UniProt Q9H3N8); test: Binding affinity to histamine H4 receptor (unknown origin) at 10 uM

Chain of 5-hydroxytryptamine receptor 1D (Homo sapiens) (P28221 whole entry): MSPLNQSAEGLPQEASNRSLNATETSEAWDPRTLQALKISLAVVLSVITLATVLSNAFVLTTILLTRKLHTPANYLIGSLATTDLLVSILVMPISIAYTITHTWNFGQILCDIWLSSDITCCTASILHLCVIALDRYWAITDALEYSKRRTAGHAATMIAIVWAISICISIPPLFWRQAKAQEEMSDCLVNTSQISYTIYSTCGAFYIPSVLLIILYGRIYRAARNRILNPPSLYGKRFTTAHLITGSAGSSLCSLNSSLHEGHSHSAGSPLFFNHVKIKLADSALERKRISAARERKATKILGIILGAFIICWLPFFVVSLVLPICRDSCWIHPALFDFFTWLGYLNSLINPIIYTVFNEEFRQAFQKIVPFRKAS

COc1cc2c3c(c1OC)-c1cc4c(cc1CC3N(C)CC2c1ccccc1)OCO4 (configuration not stated)
inhibition [1]: < 50%
inhibition [2]: 34.5%
inhibition [3]: < 50%
inhibition [4]: < 50%
inhibition [5]: 92.2%
inhibition [6]: 10.1%
inhibition [7]: 22.6%
inhibition [8]: < 50%
inhibition [9]: < 50%
Ki [10]: 627 nM
Ki [11]: 2900 nM
inhibition [12]: < 50%
inhibition [13]: < 50%
inhibition [14]: < 50%
Ki [15]: 96 nM
inhibition [16]: < 50%
Ki [17]: 719 nM
Ki [18]: 3220 nM
inhibition [19]: < 50%
inhibition [20]: 5.5%
inhibition [21]: < 50%
inhibition [22]: < 50%
inhibition [23]: 8%
inhibition [24]: < 50%
inhibition [25]: < 50%
inhibition [26]: < 50%
inhibition [27]: < 50%
inhibition [28]: < 50%
Ki [29]: 433 nM
inhibition [30]: < 50%
inhibition [31]: < 50%
inhibition [32]: < 50%

From ChEMBL document CHEMBL3608284, “C4 phenyl aporphines with selective h5-HT(2B) receptor affinity” (Bioorg Med Chem Lett, 2015)
